Laboratory results from patent publication US5536497A, “Fimbrial polypeptides useful in the prevention of periodontitis” (priority 1992, dated 1996).
Where two headings read alike, the source gives them in different places. Square brackets hold non-standard residues; d marks the D form. Peptide text beside a SMILES is read from it. * marks the point of attachment. Sta = CC(C)C[C@H](N)[C@@H](O)CC(=O)O; Isovaleryl = CC(C)CC(=O)*

B1: Trypsin, bovine pancreas type XIII-TPCK: trypsin from bovine pancreas, type XIII, TPCK treated (protein, UniProt P00760 24-246, looked up)
Serine protease 1: IVGGYTCGANTVPYQVSLNSGYHFCGGSLINSQWVVSAAHCYKSGIQVRLGEDNINVVEGNEQFISASKSIVHPSYNSNTLNNDIMLIKLKSAASLNSRVASISLPTSCASAGTQCLISGWGNTKSSGTSYPDVLKCLKAPILSDSSCKSAYPGQITSNMFCAGYLEGGKDSCQGDSGGPVVCSGKLQGIVSWGSGCAQKNKPGVYTKVCNYVSWIKQTIASN
modifications: TPCK treated

System: P. gingivalis 2561 binding to sHAP beads
Assay: microbe, parasite or virus in culture
Assay type: cell-based, Porphyromonas gingivalis
[1] = Table 2, amount 0.1 mg, minus = enhancement of binding

Row | Molecule | Inhibition (%) [1] | other results
1 | O=C[C@H](O)[C@@H](O)[C@@H](O)[C@H](O)C(=O)O [D-Galacturonic acid] | 21% | 
2 | N-Acetyl neuramin-lactose | 2% | 
3 | O=C[C@H](O)[C@@H](O)[C@H](O)[C@H](O)CO [Glucose] | -10% | 
4 | Defatted BSA: defatted BSA, agent tested in Table 2 |  | Inhibition (%) (Table 2, amount l mg): 43%
5 | CC(C)CC(=O)N[C@H](C(=O)N[C@H](C(=O)N[C@@H](CC(C)C)[C@@H](O)CC(=O)N[C@@H](C)C(=O)N[C@@H](CC(C)C)[C@@H](O)CC(=O)O)C(C)C)C(C)C [Pepstatin] (Isovaleryl-VV[Sta]A[Sta]-OH) |  | inhibition at 1 µM (Porphyromonas gingivalis): -10%
6 | C[C@H](O)[C@@H](O)[C@@H](O)[C@H](O)C=O [Fucose] | 1% | 
7 | OC[C@H]1O[C@@H](O[C@H]2[C@H](O)[C@@H](O)C(O)O[C@@H]2CO)[C@H](O)[C@@H](O)[C@H]1O (some centres unmarked) [Lactose] | -1% | 
8 | CC(=O)N[C@@H](CC(C)C)C(=O)N[C@@H](CC(C)C)C(=O)N[C@H](C=O)CCCNC(=N)N [Leupeptin] |  | inhibition at 2 µM (Porphyromonas gingivalis): 19%
9 | N[C@H]1C(O)O[C@H](CO)[C@@H](O)[C@@H]1O (some centres unmarked) [Glucosamine] | 0% | 
10 | O=C[C@H](O)[C@@H](O)[C@@H](O)[C@H](O)CO [Galactose] | -7% | 
11 | CC(=O)N[C@H]1C(O)O[C@H](CO)[C@@H](O)[C@@H]1O (some centres unmarked) [N-Acetylglucosamine] | -15% | 
12 | O=C[C@@H](O)[C@@H](O)[C@H](O)[C@H](O)CO [Mannose] | -15% | 
13 | N=C(N)NCCC[C@H](N)C(=O)O [L-Arginine] | 0% | 
14 | OC[C@H]1O[C@H](O[C@H]2[C@H](O)[C@@H](O)[C@H](O)O[C@@H]2CO)[C@H](O)[C@@H](O)[C@@H]1O [Maltose] | -8% | 
15 | CC(=O)N[C@H]1[C@H]([C@H](O)[C@H](O)CO)OC(O)(C(=O)O)C[C@@H]1O (some centres unmarked) [Sialic acid (N-acetyl neuraminic acid), N-acetyl neuraminic acid] | 28% | 
16 | poly-2,8-N-acetyl neuraminic acid | 13% | 
17 | O=C(O)CN(CCN(CC(=O)O)CC(=O)O)CC(=O)O [EDTA] |  | Inhibition (%): 24
18 | CC(=O)N[C@H]1C(O)O[C@H](CO)[C@H](O)[C@@H]1O (some centres unmarked) [N-Acetylgalactosamine] | -5% | 
19 | O=C[C@H](O)[C@@H](O)[C@H](O)[C@H](O)C(=O)O [D-Glucuronic acid] | 33% | 
20 | N[C@H]1C(O)O[C@H](CO)[C@H](O)[C@@H]1O (some centres unmarked) [Galactosamine] | 8% | 
21 | Poly-L-lysine |  | Inhibition (%) (Table 2, amount 0.25 mg): 41%
22 | c1cnc2c(c1)ccc1cccnc12 [1,10-Phenanthroline] |  | inhibition at 1000 µM (Porphyromonas gingivalis): -8%
23 | NCCCC[C@H](N)C(=O)O [L-Lysine] | 5% | 
24 | O=S(=O)(F)Cc1ccccc1 [Phenylmethylsulfonyl fluoride] |  | Inhibition (%) (Table 2, conc. 2 mM): 13%
25 | B1 |  | Inhibition (%) (Table 2, amount 100 U): 53%; Reduction of P. gingivalis binding after pretreatment of sHAP beads (sHAP beads pretreated with enzyme prior to being mixed with P. gingivalis cells): approximately 50%
